What follows are molecules tested against hOGG1 (Homo sapiens, UniProt O15527) (assay: Biochemical fluorescence assay to measure enzymatic activity of hOGG1 (OGG1/APEX IC50)). Conditions: 1 nM OGG1+2 nM APEX+6 nM dsDNA (8-oxo-dG substrate); pH 7.5; RT 40 min; read-out: OGG1/APEX IC50.
Set-up: Protein His-hOGG1 (12-323) was prepared; His (N); host or cells: E. coli
Method in brief: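 His-hOGG1 (12-323, E. coli) at 1 nM with 2 nM hAPE1/APEX1, preincubated 20 min RT with compound. Then 6 nM 8-oxo-dG dsDNA substrate added, 40 min at RT in Tris pH 7.5, 100 mM KCl. TAMRA fluorescence (Ex520/Em600) converted to % inhibition vs controls; IC50 from 3-parameter fit of 10-point curve.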

hOGG1, sequence (O15527 12-323): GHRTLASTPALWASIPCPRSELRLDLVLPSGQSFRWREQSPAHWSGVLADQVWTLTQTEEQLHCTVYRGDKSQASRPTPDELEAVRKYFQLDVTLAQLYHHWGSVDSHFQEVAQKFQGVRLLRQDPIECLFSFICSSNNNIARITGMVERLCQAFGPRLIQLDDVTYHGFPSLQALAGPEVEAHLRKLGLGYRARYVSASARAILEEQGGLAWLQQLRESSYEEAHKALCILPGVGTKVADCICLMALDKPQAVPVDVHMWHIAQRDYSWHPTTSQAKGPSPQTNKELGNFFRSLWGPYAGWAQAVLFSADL

Row | Compound | IC50
1 | COc1cc(NC(=O)[C@H]2CC[C@@H](n3[nH]c4c(C)cccc4c3=O)CC2)ccc1C [Example 118, (1s,4s)-N-(3-Methoxy-4-methylphenyl)-4-(7-methyl-3-oxo-1,3-dihydro-2H-indazol-2-yl)cyclohexane-1-carboxamide] | < 100 nM
2 | COc1cc(NC(=O)[C@H]2CC[C@@H](N3Cc4c(C)cc(OCCN(C)C)cc4OC3=O)CC2)ccc1C [Example 117, (1s,4s)-4-(7-(2-(dimethylamino)ethoxy)-5-methyl-2-oxo-2H-benzo[e][1,3]oxazin-3(4H)-yl)-N-(3-methoxy-4-methylphenyl)cyclohexane-1-carboxamide] | 100 to 1000 nM
3 | COc1ccc(NC(=O)[C@H]2CC[C@@H](N3Cc4c(C)cccc4NC3=O)CC2)cc1C#N [Example 86, (1s,4s)-N-(3-cyano-4-methoxyphenyl)-4-(5-methyl-2-oxo-1,2-dihydroquinazolin-3(4H)-yl)cyclohexanecarboxamide] | < 100 nM
4 | COc1cc(NC(=O)[C@H]2CC[C@@H](N3Cc4c(C)ccc(C)c4NC3=O)CC2)ccc1C [Example 25, (1s,4s)-4-(5,8-Dimethyl-2-oxo-1,2-dihydroquinazolin-3(4H)-yl)-N-(3-methoxy-4-methylphenyl)cyclohexanecarboxamide] | < 100 nM
5 | COc1cc(NC(=O)[C@H]2CC[C@H](N3Cc4c(C)cc(NCCN(C)C)cc4NC3=O)CC2)ccc1C [Example 85, (1r,4r)-4-(7-(2-(dimethylamino)ethylamino)-5-methyl-2-oxo-1,2-dihydroquinazolin-3(4H)-yl)-N-(3-methoxy-4-methylphenyl)cyclohexanecarboxamide] | 100 to 1000 nM
6 | COc1cc(NC(=O)[C@H]2CC[C@@H](N3Cc4c(cccc4C(F)(F)F)C3=O)CC2)ccc1C [Example 147, (1s,4s)-N-(3-Methoxy-4-methylphenyl)-4-(1-oxo-4-(trifluoromethyl)isoindolin-2-yl)cyclohexanecarboxamide] | 1000 to 10000 nM
7 | COc1cc(NC(=O)[C@H]2CC[C@@H](N3Cc4c(C)cc([N+](=O)[O-])cc4C3=O)CC2)ccc1C [Example 167, (1s,4s)-N-(3-Methoxy-4-methylphenyl)-4-(4-methyl-6-nitro-1-oxoisoindolin-2-yl)cyclohexanecarboxamide] | < 100 nM
8 | COc1ccc(NC(=O)[C@H]2CC[C@@H](N3Cc4c(C)cccc4NC3=O)CC2)cc1Cl [Example 88, (1s,4s)-N-(3-chloro-4-methoxyphenyl)-4-(5-methyl-2-oxo-1,2-dihydroquinazolin-3(4H)-yl)cyclohexanecarboxamide] | < 100 nM
9 | CNCCNc1cc(Br)c2c(c1)C(=O)N([C@H]1CC[C@@H](C(=O)Nc3ccc(C)c(OC)c3)CC1)C2 [Example 175, (1s,4s)-4-(4-Bromo-6-(2-(methylamino)ethylamino)-1-oxoisoindolin-2-yl)-N-(3-methoxy-4-methylphenyl)cyclohexanecarboxamide] | < 100 nM
10 | COc1cc(NC(=O)[C@H]2CC[C@@H](N3Cc4c(C)ccc(O)c4NC3=O)CC2)ccc1C [Example 61, (1s,4s)-4-(8-hydroxy-5-methyl-2-oxo-1,2-dihydroquinazolin-3(4H)-yl)-N-(3-methoxy-4-methylphenyl)cyclohexanecarboxamide] | < 100 nM
11 | COc1cc(NC(=O)[C@]2(C)CC[C@H](N3Cc4c(C)cccc4NC3=O)CC2)ccc1C (single isomer, unassigned) [Example 101, (1s,4s)-N-(3-methoxy-4-methylphenyl)-1-methyl-4-(5-methyl-2-oxo-1,2-dihydroquinazolin-3(4H)-yl)cyclohexanecarboxamide] | < 100 nM
12 | COc1ccc(NC(=O)[C@H]2CC[C@@H](N3Cc4c(C)cc(NCCN(C)C)cc4NC3=O)CC2)cc1Cl [Example 100, (1s,4s)-N-(3-chloro-4-methoxyphenyl)-4-(7-(2-(dimethylamino)ethylamino)-5-methyl-2-oxo-1,2-dihydroquinazolin-3(4H)-yl)cyclohexanecarboxamide] | < 100 nM
13 | Cc1cccc2c1CN([C@H]1CC[C@@H](C(=O)Nc3ccc4nc[nH]c4c3)CC1)C(=O)N2 [Example 109, (1s,4s)-N-(1H-benzo[d]imidazol-6-yl)-4-(5-methyl-2-oxo-1,2-dihydroquinazolin-3(4H)-yl)cyclohexanecarboxamide] | 1000 to 10000 nM

Results, then the molecule that gave them:

Row | IC50 | Compound
14 | > 10000 nM | Cc1cccc2c1CN([C@H]1CC[C@@H](C(=O)Nc3ccc(=O)[nH]c3)CC1)C2=O [Example 251, (1s,4s)-4-(4-Methyl-1-oxoisoindolin-2-yl)-N-(6-oxo-1,6-dihydropyridin-3-yl)cyclohexanecarboxamide]
15 | > 10000 nM | Cc1cccc2c1CN([C@H]1CC[C@@H](C(=O)Nc3cccc(=O)[nH]3)CC1)C2=O [Example 248, (1s,4s)-4-(4-Methyl-1-oxoisoindolin-2-yl)-N-(6-oxo-1,6-dihydropyridin-2-yl)cyclohexanecarboxamide]
16 | 1000 to 10000 nM | O=C1c2cccc(Br)c2CN1[C@H]1CC[C@@H](C(=O)Nc2ccc3c(c2)OCCO3)CC1 [Example 191, (1s,4s)-4-(4-Bromo-1-oxoisoindolin-2-yl)-N-(2,3-dihydrobenzo[b][1,4]dioxin-6-yl)cyclohexanecarboxamide]
17 | < 100 nM | CNCCOc1cc(C)c2c(c1)C(=O)N([C@H]1CC[C@@H](C(=O)Nc3ccc(C)c(OC)c3)CC1)C2 [Example 266, (1s,4s)-N-(3-Methoxy-4-methylphenyl)-4-(4-methyl-6-(2-(methylamino)ethoxy)-1-oxoisoindolin-2-yl)cyclohexanecarboxamide]
18 | 1000 to 10000 nM | COc1ccc(NC(=O)[C@H]2CC[C@@H](N3Cc4c(C)cccc4C3=O)CC2)c(F)c1 [Example 242, (1s,4s)-N-(2-Fluoro-4-methoxyphenyl)-4-(4-methyl-1-oxoisoindolin-2-yl)cyclohexanecarboxamide]
19 | 1000 to 10000 nM | COc1cc(NC(=O)[C@]2(C)CC[C@@H](N3Cc4c(C)cccc4C3=O)CC2)ccc1C [Example 278, (1r,4r)-N-(3-methoxy-4-methylphenyl)-1-methyl-4-(4-methyl-1-oxoisoindolin-2-yl)cyclohexane-1-carboxamide]
20 | 100 to 1000 nM | COc1cc(NC(=O)[C@H]2CC[C@@H](N3Cc4c(Br)cc(NC(=O)CN5CCOCC5)cc4C3=O)CC2)ccc1C [Example 199, (1s,4s)-4-(4-Bromo-6-(2-morpholinoacetamido)-1-oxoisoindolin-2-yl)-N-(3-methoxy-4-methylphenyl)cyclohexanecarboxamide]
21 | 100 to 1000 nM | COc1cc(NC(=O)[C@H]2CC[C@@H](N3Cc4c(Br)cc(NC(=O)Cn5ccnc5)cc4C3=O)CC2)ccc1C [Example 196, (1s,4s)-4-(6-(2-(1H-Imidazol-1-yl)acetamido)-4-bromo-1-oxoisoindolin-2-yl)-N-(3-methoxy-4-methylphenyl)cyclohexanecarboxamide]
22 | 100 to 1000 nM | COc1cc(NC(=O)[C@H]2CC[C@@H](N3Cc4c(Br)cc(NCCN5CCOCC5)cc4C3=O)CC2)ccc1C [Example 203, (1s,4s)-4-(4-Bromo-6-(2-morpholinoethylamino)-1-oxoisoindolin-2-yl)-N-(3-methoxy-4-methylphenyl)cyclohexanecarboxamide]
23 | > 10000 nM | Cc1cccc2c1CN([C@H]1CC[C@@H](C(=O)Nc3cc[nH]c(=O)c3)CC1)C2=O [Example 250, (1s,4s)-4-(4-methyl-1-oxoisoindolin-2-yl)-N-(2-oxo-1,2-dihydropyridin-4-yl)cyclohexanecarboxamide]

From US20260317356A1, “SMALL MOLECULE MODULATORS OF OGG1” (AZKARRA THERAPEUTICS, INC., priority 2023, published 2026)
